Laboratory results as given in patent US8013006B2.
Like-named read-outs stand apart in the source and are kept apart here.

Assays:
HCV replicon = assay: microbe, parasite or virus in culture; format: cell-based; details: Hepatitis C virus, 48 h

Row | SMILES | IC50 (HCV replicon; read-out: Replicon IC5Os μM) [µM] | melting point [°C] | IC50 (HCV replicon; read-out: Replicon IC5Os) [µM]
1 | CCn1c(C#Cc2ccc(C(C)(C)C)cc2)c(C#N)c2ccc(OC)cc21 [Compound 145] | 0.5 to 2 | 110 to 113 | –
2 | CCn1c(C#Cc2ccc(NC(=O)C3CCC3)cc2)c(C#N)c2ccc(OC)cc21 [Compound 153] | 0.5 to 2 | 225 to 228 | –
3 | CCn1c(C#Cc2ccc(CC#N)cc2)c(C#N)c2ccc(OC)cc21 [Compound 161] | 0.5 to 2 | 174 to 176 | –
4 | CCn1c(C#Cc2ccc(O)cc2)c(C#N)c2ccc(OC)cc21 [Compound 172] | 0.5 to 2 | 221 to 223 | –
5 | CCn1c(C#Cc2cccc(N)c2)c(C#N)c2ccc(OC)cc21 [Compound 173] | 0.5 to 2 | 150 to 153 | –
6 | CCn1c(C#Cc2ccc3c(c2)OCCO3)c(C#N)c2ccc(OC)cc21 [Compound 175] | 0.5 to 2 | 132 to 135 | –
7 | CCn1c(C#Cc2ccc(C(F)(F)F)cc2)c(C#N)c2ccc(O)cc21 [Compound 185] | 0.5 to 2 | 157 to 160 | –
8 | CCn1c(C#Cc2ccccc2)c(C#N)c2ccc(O)cc21 [Compound 188] | 0.5 to 2 | 209 to 212 | –
9 | CCn1c(C#Cc2cccc(O)c2)c(C#N)c2ccc(C(F)(F)F)cc21 [Compound 196] | 0.5 to 2 | 187 to 189 | –
10 | CCn1c(C#Cc2ccc(N)cc2)c(C#N)c2ccc(C(F)(F)F)cc21 [Compound 200] | 0.5 to 2 | 187 to 189 | –
11 | CCn1c(C#Cc2ccc(N(C)C)cc2)c(C#N)c2ccc(C(F)(F)F)cc21 [Compound 201] | 0.5 to 2 | 147 to 150 | –
12 | CCn1c(C#Cc2cccc(NC(C)=O)c2)c(C#N)c2ccc(OC)cc21 [Compound 205] | 0.5 to 2 | 181 to 184 | –
13 | CCC(=O)Nc1cccc(C#Cc2c(C#N)c3ccc(OC)cc3n2CC)c1 [Compound 206] | 0.5 to 2 | 187 to 191 | –
14 | CCn1c(C#Cc2cccc(NC(=O)C(C)C)c2)c(C#N)c2ccc(OC)cc21 [Compound 207] | 0.5 to 2 | 179 to 183 | –
15 | CCn1c(C#Cc2cccc(NC(=O)C3CC3)c2)c(C#N)c2ccc(OC)cc21 [Compound 211] | 0.5 to 2 | 186 to 191 | –
16 | CCn1c(C#Cc2cccc(NC(=O)C3CCC3)c2)c(C#N)c2ccc(OC)cc21 [Compound 213] | 0.5 to 2 | 165 to 168 | –
17 | CCn1c(NC(=O)C2CC2)c(C#N)c2ccc(OC)cc21 [Compound 216] | 0.5 to 2 | 261 | –
18 | CCn1c(NC(=O)OCC(C)C)c(C#N)c2ccc(OC)cc21 [Compound 217] | < 0.5 | 272 to 273 | –
19 | CCn1c(C#Cc2cccc(NC=O)c2)c(C#N)c2ccc(OC)cc21 [Compound 218] | 0.5 to 2 | 174 to 177 | –
20 | CCn1c(C#Cc2cccc(NC(=O)COC)c2)c(C#N)c2ccc(OC)cc21 [Compound 219] | 0.5 to 2 | 145 to 149 | –
21 | CCn1c(C#Cc2cccc(NC(=O)NCCCl)c2)c(C#N)c2ccc(OC)cc21 [Compound 221] | 0.5 to 2 | 195 to 200 | –

Row | SMILES | IC50 (HCV replicon; read-out: Replicon IC5Os μM) [µM] | melting point [°C] | IC50 (HCV replicon; read-out: Replicon IC5Os) [µM]
22 | COc1ccc2c(C#N)c(C#Cc3ccc(C(C)(C)C)cc3)[nH]c2c1 [Compound 233] | 0.5 to 2 | 232 to 234 | –
23 | CCn1c(-c2ccc(NS(C)(=O)=O)cc2)c(C#N)c2cc(OC)ccc21 [Compound 243] | < 0.5 | 194 to 198 | –
24 | CCCS(=O)(=O)Nc1ccc(-c2c(C#N)c3ccc(OC)cc3n2CC)cc1 [Compound 251] | 0.5 to 2 | 186 to 187 | –
25 | CCn1c(-c2ccc(NS(=O)(=O)CCCCl)cc2)c(C#N)c2ccc(OC)cc21 [Compound 252] | 0.5 to 2 | 176 to 177 | –
26 | CCn1c(-c2ccc(OCCNS(=O)(=O)CC)cc2)c(C#N)c2ccc(OC)cc21 [Compound 269] | 0.5 to 2 | 153 to 158 | –
27 | CCn1c(-c2cccc(S(=O)(=O)NC)c2)c(C#N)c2ccc(OC)cc21 [Compound 331] | – | 160 to 165 | 0.5 to 2
28 | CCn1c(-c2ccc3c(c2)oc(=O)n3C)c(C#N)c2ccc(OC)cc21 [Compound 341] | – | 227 to 230 | 0.5 to 2
29 | CCS(=O)(=O)Nc1ccc(-c2c(C#N)c3ccc(OC)cc3n2C)cc1 [Compound 345] | – | 191 to 192 | 0.5 to 2
30 | CCCn1c(-c2ccc(NS(C)(=O)=O)cc2)c(C#N)c2ccc(OC)cc21 [Compound 346] | – | 178 to 180 | < 0.5
31 | CCn1c(-c2ccc(NS(=O)(=O)CC)cc2)c(C#N)c2ccc(C(F)(F)F)cc21 [Compound 366] | – | 223 to 225 | < 0.5
32 | CCCS(=O)(=O)Nc1ccc(-c2c(C#N)c3ccc(C(F)(F)F)cc3n2CC)cc1 [Compound 367] | – | 225 to 227 | 0.5 to 2
33 | CCn1c(-c2ccc(NS(=O)(=O)CCCCl)cc2)c(C#N)c2ccc(C(F)(F)F)cc21 [Compound 369] | – | 174 to 177 | 0.5 to 2
34 | CCn1c(-c2ccc(S(N)(=O)=O)cc2)c(C#N)c2cc(Cl)ccc21 [Compound 408] | – | 231 to 235 | 0.5 to 2
35 | CCOc1ccc2c(C#N)c(-c3ccc(NS(C)(=O)=O)cc3)n(C)c2c1 [Compound 413] | – | 184 to 185 | < 0.5
36 | CCOc1ccc2c(C#N)c(-c3ccc(NS(C)(=O)=O)cc3)n(CC)c2c1 [Compound 415] | – | 163 to 165 | < 0.5
37 | CCOc1ccc2c(C#N)c(-c3ccc(NS(=O)(=O)CC)cc3)n(CC)c2c1 [Compound 416] | – | 173 to 175 | < 0.5
38 | CCCn1c(-c2ccc(NS(=O)(=O)CC)cc2)c(C#N)c2ccc(OCC)cc21 [Compound 418] | – | 183 to 184 | < 0.5
39 | CCn1c(-c2ccc(NC(C)=O)cc2)c(C#N)c2ccc(C(F)(F)F)cc21 [Compound 420] | – | 241 to 243 | 0.5 to 2
40 | CCC(=O)Nc1ccc(-c2c(C#N)c3ccc(C(F)(F)F)cc3n2CC)cc1 [Compound 422] | – | 259 to 261 | 0.5 to 2
41 | CCn1c(-c2ccc(S(=O)(=O)NC)cc2)c(C#N)c2cc(Cl)ccc21 [Compound 430] | – | 180 to 186 | 0.5 to 2
42 | CCn1c(-c2ccc(N/C(C)=C/C#N)cc2)c(C#N)c2ccc(OC)cc21 [Compound 456] | – | 157 to 159 | 0.5 to 2

Row | SMILES | IC50 (HCV replicon; read-out: Replicon IC5Os μM) [µM] | melting point [°C] | IC50 (HCV replicon; read-out: Replicon IC5Os) [µM]
43 | CCn1c(-c2ccc(S(N)(=O)=O)cc2)c(C#N)c2cc(-c3cccc(OC)c3)ccc21 [Compound 461] | – | 200 to 205 | < 0.5
44 | CCn1c(-c2ccc(S(=O)(=O)NC)cc2)c(C#N)c2cc(-c3cccc(OC)c3)ccc21 [Compound 462] | – | 135 to 140 | < 0.5
45 | CCOc1ccc2c(C#N)c(-c3ccc(NS(=O)(=O)CC)cc3)n(CC(C)C)c2c1 [Compound 470] | – | 178 to 180 | < 0.5
46 | CCOc1ccc2c(C#N)c(-c3ccc(NS(C)(=O)=O)cc3)n(CC(C)C)c2c1 [Compound 471] | – | 154 to 156 | < 0.5
47 | CCOc1ccc2c(C#N)c(-c3ccc(NS(C)(=O)=O)cc3)n(C3CCC3)c2c1 [Compound 472] | – | 215 to 217 | < 0.5
48 | CCOc1ccc2c(C#N)c(-c3ccc(NS(=O)(=O)CC)cc3)n(C3CCC3)c2c1 [Compound 473] | – | 189 to 191 | < 0.5
49 | CCn1c(-c2ccc(NS(C)(=O)=O)cc2)c(C#N)c2ccc(OCCCl)cc21 [Compound 477] | – | 194 to 195 | < 0.5
50 | CCn1c(-c2ccc(NS(C)(=O)=O)cc2)c(C#N)c2ccc(OCCN3CCSCC3)cc21 [Compound 480] | – | 207 to 208 | < 0.5
51 | CCCS(=O)(=O)Nc1ccc(-c2c(C#N)c3ccc(OCCCl)cc3n2CC)cc1 [Compound 495] | – | 126 to 128 | 0.5 to 2
52 | CCn1c(-c2ccc(NS(C)(=O)=O)cc2)c(C#N)c2ccc(OCCN(C)C)cc21 [Compound 498] | – | 192 to 194 | 0.5 to 2
53 | CCn1c(-c2ccc(NS(=O)(=O)CC)cc2)cc2ccc(OC(F)F)cc21 [Compound 516, ethanesulfonic acid [4-(6-difluoromethoxy-1-ethyl-1H-iodo-2-yl)-phenyl]-amide] | – | 155 to 156 | 0.5 to 2
54 | Cn1c(-c2ccc(NS(C)(=O)=O)cc2)c(C#N)c2ccc(OC(F)F)cc21 [Compound 518] | – | 197 to 199 | 0.5 to 2
55 | CCn1c(-c2ccc(NS(=O)(=O)CC)cc2)c(C#N)c2ccc(OC(F)F)cc21 [Compound 520] | – | 175 to 177 | < 0.5
56 | CCCn1c(-c2ccc(NS(C)(=O)=O)cc2)c(C#N)c2ccc(OC(F)F)cc21 [Compound 521] | – | 184 to 186 | < 0.5
57 | CC(C)n1c(-c2ccc(NS(C)(=O)=O)cc2)c(C#N)c2ccc(OC(F)F)cc21 [Compound 523] | – | 190 to 192 | < 0.5
58 | CCn1c(-c2cccc(NS(=O)(=O)NC(C)C)c2)c(C#N)c2ccc(OC)cc21 [Compound 542] | – | 186 to 188 | 0.5 to 2
59 | CCn1c(-c2ccc(N)cc2)c(C#N)c2ccc(OCCF)cc21 [Compound 543] | – | 197 to 200 | 0.5 to 2
60 | CCn1c(-c2ccc(NC(=O)C3CC3)cc2)c(C#N)c2ccc(OCCF)cc21 [Compound 544] | – | 263 to 265 | < 0.5
61 | CCn1c(-c2ccc(NC(=O)OC)cc2)c(C#N)c2ccc(OCCF)cc21 [Compound 545] | – | 203 to 205 | 0.5 to 2
62 | CCOC(=O)Nc1ccc(-c2c(C#N)c3ccc(OCCF)cc3n2CC)cc1 [Compound 546] | – | 208 to 210 | < 0.5
63 | CCn1c(-c2ccc(NS(C)(=O)=O)cc2)c(C#N)c2ccc(OCCF)cc21 [Compound 548] | – | 171 to 174 | 0.5 to 2
